From patent US5665700A, “Pharmaceutical formulations” (Skua Investments Limited, priority 1994, dated 1997)

test system: not given; assay: not given; settings: in vivo; cited from earlier work

Row | Substance | LD50 [mg/kg]
1 | POE(2) cetyl ether | 22000
2 | POE(2) oleyl ether | 25000
3 | POE(2) stearyl ether | > 25000
4 | POE(4) lauryl ether | 9000
5 | POE(4) sorbitan monostearate | > 40000
6 | POE(5) sorbitan monooleate | > 37000
7 | POE(23) lauryl ether | 9000
8 | Sorbitan monolaurate | 41000
9 | Sorbitan monooleate | > 40000
10 | Sorbitan monopalmitate | > 16000
11 | Sorbitan monostearate | 31000
12 | Sorbitan trioleate | > 40000
13 | Sorbitan tristearate | > 16000

test system: not listed separately; assay: Oral EPO study in normal male volunteers: plasma EPO levels by radioimmunoassay; assay type: in vivo, human; settings: Study Day 1, 10 IU/kg intravenous infusion
Description: (§1) Eight healthy, normal male volunteers participated in this study. After overnight fasting, on Study Day 1 the subjects received medication as follows:
(§2) Blood samples were collected at time 0, 0.5, 1, 2, 3, 4, 6, 10 and 14 hours after the medication; reticulocyte counts (%) were made and plasma EPO levels were measured by radioimmunoassay.
(§3) On Day 2 and Day 3, each subject was given the assigned coded study medications at 08:00 a.m., 14:00 p.m. and 22:00 p.m. and, after an overnight fast, on Study Day 4, each subject was examined again after having been given the study medications as above.

Row | Substance | plasma RIA-measured EPO levels
14 | Erythropoietin [EPO] | markedly increased

test system: reticulocyte counts; assay: Oral EPO study in normal male volunteers: reticulocyte counts; assay type: in vivo, human; settings: Study Day 4, 10 IU/Kg intravenous infusion
Description: as §1, §2, §3

Row | Substance | Reticulocyte counts
15 | Erythropoietin [EPO] | increased
